Reference: paper PMC11110727, “Exploiting thiol-functionalized benzosiloxaboroles for achieving diverse substitution patterns – synthesis, characterization and biological evaluation of promising antibacterial agents” (RSC Medicinal Chemistry, 2024)
Values after ≈ are worked out from the molar mass of the structure shown.

Assays:
[1] = test system: C. guilliermondii IBA 155; assay: Antifungal activity: MIC/MFC, disc-diffusion; format: cell-based; details: for MIC: read-out: MIC; for diameter of inhibition zone: (-) = zone not observed, paper discs 9 mm
How it was run: (§1)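 CLSI recommendations governed the MBC/MFC determination. MICs and inhibition zones were obtained by EUCAST/CLSI dilution and disc-diffusion methods, with compounds delivered in DMSO.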

[2] = test system: C. parapsilosis ATCC 22019; assay: Antifungal activity: MIC/MFC, disc-diffusion; format: cell-based; details: for MIC: Lodderomyces parapsilosis, ATCC22019, read-out: MIC; for diameter of inhibition zone: C. parapsilosis ATCC 22019, (-) = zone not observed, paper discs 9 mm
How it was run: as §1

C. tropicalis ATCC 750 = assay: Antifungal activity: MIC/MFC, disc-diffusion; format: cell-based; details: for MIC: Candida tropicalis, ATCC750, read-out: MIC; for diameter of inhibition zone: C. tropicalis ATCC 750, (-) = zone not observed, paper discs 9 mm
How it was run: as §1

C. tropicalis IBA 171 = assay: Antifungal activity: MIC/MFC, disc-diffusion; format: cell-based; details: for MIC: Candida tropicalis, IBA171, read-out: MIC; for diameter of inhibition zone: C. tropicalis IBA 171, (-) = zone not observed, paper discs 9 mm
How it was run: as §1

K. pneumoniae ATCC 13883 = assay: Antibacterial activity: MIC/MBC, MIC with PAβN, disc-diffusion; format: cell-based, Klebsiella pneumoniae; details: K. pneumoniae ATCC 13883; for MIC: Klebsiella pneumoniae, ATCC13883, read-out: MIC; for -fold reduction of MIC in the presence of PAβN: PAβN 20 μg mL^−1, MHB + 1 mM MgSO4
How it was run: (§2)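 MICs were measured by CLSI broth microdilution in Mueller–Hinton II broth, with or without the efflux-pump inhibitor PAβN (20 μg mL^−1) and with 1 mM MgSO4 present. A reduction of at least 4-fold with PAβN was counted as significant. Disc diffusion followed EUCAST/CLSI, MBC followed CLSI, and compounds were dissolved in DMSO.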

E. coli ATCC 25922 = assay: as above; format: cell-based, Escherichia coli; details: E. coli ATCC 25922; for MIC: read-out: MIC; for -fold reduction of MIC in the presence of PAβN: PAβN 20 μg mL^−1, MHB + 1 mM MgSO4
How it was run: as §2

S. marcescens ATCC 13880 = assay: as above; format: cell-based, Serratia marcescens; details: S. marcescens ATCC 13880; for MIC: Serratia marcescens, ATCC13880, read-out: MIC
How it was run: as §2

B. cepacia ATCC 25416 = assay: Antibacterial activity: MIC/MBC, disc-diffusion; format: cell-based, Burkholderia cepacia; details: Burkholderia cepacia, ATCC25416; B. cepacia ATCC 25416; read-out: MIC
How it was run: as §2

C. albicans ATCC 90028 = assay: Antifungal activity: MIC/MFC, disc-diffusion; format: cell-based, Candida albicans; details: for diameter of inhibition zone: C. albicans ATCC 90028, (-) = zone not observed, paper discs 9 mm; for MIC: Candida albicans, ATCC90028, read-out: MIC
How it was run: as §1

[3] = test system: B. bronchiseptica ATCC 4617; assay: Antibacterial activity: MIC/MBC, disc-diffusion; format: cell-based, Bordetella bronchiseptica; details: B. bronchiseptica ATCC 4617; for MIC: read-out: MIC; for diameter of inhibition zone: (-) = zone not observed, paper discs 9 mm
How it was run: as §2

S. cerevisiae ATCC 9763 = assay: Antifungal activity: MIC/MFC, disc-diffusion; format: cell-based, Saccharomyces cerevisiae; details: for diameter of inhibition zone: (-) = zone not observed, paper discs 9 mm; for MIC: read-out: MIC
How it was run: as §1

[4] = Meyerozyma guilliermondii, IBA155
[5] = Bordetella bronchiseptica, ATCC4617
[6] = Saccharomyces cerevisiae, ATCC9763
[7] = (-) = zone not observed, paper discs 9 mm

SMILES	MIC [1, 4]	MIC [2]	MIC (C. tropicalis ATCC 750)	MIC (C. tropicalis IBA 171)	MIC (K. pneumoniae ATCC 13883)	MIC (E. coli ATCC 25922; Escherichia coli, ATCC25922)	MIC (S. marcescens ATCC 13880)	MIC (B. cepacia ATCC 25416)	MIC (C. albicans ATCC 90028)	MIC [3, 5]	diameter of inhibition zone (S. cerevisiae ATCC 9763; S. cerevisiae ATCC 9763)	MIC (S. cerevisiae ATCC 9763; [6])	diameter of inhibition zone [2]	other results
C[Si]1(C)OB(O)c2cc(F)c(S)c(F)c21 [Compound 1e, 5,7-Difluoro-6-mercapto-1,1-dimethylbenzo[c][1,2,5]oxasilaborol-3(1H)-ol]	> 400 µg/mL	400 µg/mL (≈ 1630 µM)	400 µg/mL (≈ 1630 µM)	200 µg/mL (≈ 813 µM)	> 400 µg/mL	> 400 µg/mL	> 400 µg/mL	> 400 µg/mL	100 µg/mL (≈ 406 µM)	> 400 µg/mL	17 mm	200 µg/mL (≈ 813 µM)	–	diameter of inhibition zone (C. albicans ATCC 90028): 15 mm
C[Si]1(C)OB(O)c2cc(F)c(SCCC(=O)OCCCCCC[n+]3ccccc3)c(F)c21 [Compound 18, 1-(6-((3-((5,7-difluoro-3-hydroxy-1,1-dimethyl-1,3-dihydrobenzo[c][1,2,5]oxasilaborol-6-yl)thio)propanoyl)oxy)hexyl)pyridin-1-ium trifluoromethanesulfonate]	> 400 µg/mL	400 µg/mL	400 µg/mL	400 µg/mL	> 400 µg/mL	> 400 µg/mL	> 400 µg/mL	> 400 µg/mL	> 400 µg/mL	> 400 µg/mL	–	> 400 µg/mL	14 mm	–
C[Si]1(C)OB(O)c2cc(F)c(SC3CC(=O)N(c4ccc(F)cc4)C3=O)c(F)c21 (stereo not drawn) [Compound 14, 3-((5,7-Difluoro-3-hydroxy-1,1-dimethyl-1,3-dihydrobenzo[c][1,2,5]oxasilaborol-6-yl)thio)-1-(4-fluorophenyl)pyrrolidine-2,5-dione]	100 µg/mL (≈ 229 µM)	100 µg/mL (≈ 229 µM)	200 µg/mL (≈ 457 µM)	200 µg/mL (≈ 457 µM)	> 200 µg/mL	> 200 µg/mL	> 200 µg/mL	> 200 µg/mL	200 µg/mL (≈ 457 µM)	200 µg/mL (≈ 457 µM)	30 mm	50 µg/mL (≈ 114 µM)	27 mm	diameter of inhibition zone ([1]; C. guilliermondii IBA 155): 31 mm; diameter of inhibition zone (C. tropicalis ATCC 750): 20 mm; diameter of inhibition zone (C. tropicalis IBA 171): 19 mm; -fold reduction of MIC in the presence of PAβN (E. coli ATCC 25922): 2 -fold; diameter of inhibition zone (C. albicans ATCC 90028): 21 mm; diameter of inhibition zone [3]: 11 mm
CC(=O)CSc1ccc2c(c1F)[Si](C)(C)OB2O [Compound 22, 1-((7-Fluoro-3-hydroxy-1,1-dimethyl-1,3-dihydrobenzo[c][1,2,5]oxasilaborol-6-yl)thio)propan-2-one]	> 400 µg/mL	> 400 µg/mL	> 400 µg/mL	> 400 µg/mL	> 400 µg/mL	> 400 µg/mL	> 400 µg/mL	> 400 µg/mL	> 400 µg/mL	> 400 µg/mL	17 mm	400 µg/mL (≈ 1410 µM)	–	–
C[Si]1(C)OB(O)c2cc(F)c(SCCC(=O)Nc3ncccn3)c(F)c21 [Compound 9, 3-((5,7-Difluoro-3-hydroxy-1,1-dimethyl-1,3-dihydrobenzo[c][1,2,5]oxasilaborol-6-yl)thio)-N-(pyrimidin-2-yl)propanamide]	> 400 µg/mL	> 400 µg/mL	> 400 µg/mL	> 400 µg/mL	> 400 µg/mL	> 400 µg/mL	> 400 µg/mL	> 400 µg/mL	> 400 µg/mL	> 400 µg/mL	–	> 400 µg/mL	–	–
C[Si]1(C)OB(O)c2cc(F)c(S(=O)(=O)Nc3ccc(F)cc3)c(F)c21 [Compound 28, 5,7-Difluoro-N-(4-fluorophenyl)-3-hydroxy-1,1-dimethyl-1,3-dihydrobenzo[c][1,2,5]oxasilaborole-6-sulfonamide]	> 400 µg/mL	> 400 µg/mL	> 400 µg/mL	> 400 µg/mL	> 400 µg/mL	> 400 µg/mL	> 400 µg/mL	> 400 µg/mL	> 400 µg/mL	> 400 µg/mL	–	> 400 µg/mL	–	-fold reduction of MIC in the presence of PAβN (E. coli ATCC 25922): 4 -fold
C[Si]1(C)OB(O)c2ccc(SC3CC(=O)NC3=O)c(F)c21 (stereo not drawn) [Compound 13, 3-((7-Fluoro-3-hydroxy-1,1-dimethyl-1,3-dihydrobenzo[c][1,2,5]oxasilaborol-6-yl)thio)pyrrolidine-2,5-dione]	> 400 µg/mL	> 400 µg/mL	> 400 µg/mL	> 400 µg/mL	200 µg/mL (≈ 615 µM)	25 µg/mL (≈ 76.9 µM)	100 µg/mL (≈ 308 µM)	> 400 µg/mL	> 400 µg/mL	12.5 µg/mL (≈ 38.4 µM)	–	> 400 µg/mL	–	diameter of inhibition zone (K. pneumoniae ATCC 13883; [7]): 19 mm; -fold reduction of MIC in the presence of PAβN (K. pneumoniae ATCC 13883): 4 -fold; diameter of inhibition zone (E. coli ATCC 25922; [7]): 19 mm; MBC (E. coli ATCC 25922; Escherichia coli, ATCC25922): 50 µg/mL (≈ 154 µM); diameter of inhibition zone (S. marcescens ATCC 13880; [7]): 29 mm; -fold reduction of MIC in the presence of PAβN (S. marcescens ATCC 13880; PAβN 20 μg mL^−1, MHB + 1 mM MgSO4): 2 -fold; diameter of inhibition zone [3]: 26 mm; MBC [3, 5]: 25 µg/mL (≈ 76.9 µM)
C[Si]1(C)OB(O)c2ccc(SC3CC(=O)N(c4ccc(Br)c(C(F)(F)F)c4)C3=O)c(F)c21 (stereo not drawn) [Compound 17, 1-(4-Bromo-3-(trifluoromethyl)phenyl)-3-((7-fluoro-3-hydroxy-1,1-dimethyl-1,3-dihydrobenzo[c][1,2,5]oxasilaborol-6-yl)thio)pyrrolidine-2,5-dione]	50 µg/mL (≈ 91.2 µM)	50 µg/mL (≈ 91.2 µM)	100 µg/mL (≈ 182 µM)	200 µg/mL (≈ 365 µM)	> 200 µg/mL	> 200 µg/mL	> 200 µg/mL	> 200 µg/mL	100 µg/mL (≈ 182 µM)	200 µg/mL (≈ 365 µM)	33 mm	6.25 µg/mL (≈ 11.4 µM)	22 mm	diameter of inhibition zone ([1]; C. guilliermondii IBA 155): 27 mm; MFC ([1]; Meyerozyma guilliermondii, IBA155, C. guilliermondii IBA 155): 200 µg/mL (≈ 365 µM); diameter of inhibition zone (C. tropicalis ATCC 750): 14 mm; diameter of inhibition zone (C. tropicalis IBA 171): 16 mm; diameter of inhibition zone (C. albicans ATCC 90028): 20 mm; MFC (S. cerevisiae ATCC 9763; Saccharomyces cerevisiae, ATCC9763, S. cerevisiae ATCC 9763): 100 µg/mL (≈ 182 µM)
C[Si]1(C)OB(O)c2ccc(SCCC(=O)OCCCCCC[n+]3ccccc3)c(F)c21 [Compound 19, 1-(6-((3-((7-Fluoro-3-hydroxy-1,1-dimethyl-1,3-dihydrobenzo[c][1,2,5]oxasilaborol-6-yl)thio)propanoyl)oxy)hexyl)pyridin-1-ium trifluoromethanesulfonate]	> 400 µg/mL	400 µg/mL	400 µg/mL	400 µg/mL	> 400 µg/mL	> 400 µg/mL	> 400 µg/mL	> 400 µg/mL	> 400 µg/mL	> 400 µg/mL	–	> 400 µg/mL	16 mm	diameter of inhibition zone (C. tropicalis ATCC 750): 15 mm; diameter of inhibition zone (C. tropicalis IBA 171): 16 mm
C[Si]1(C)OB(O)c2cc(F)c(SCCC(=O)Nc3cnccn3)c(F)c21 [Compound 10, 3-((5,7-Difluoro-3-hydroxy-1,1-dimethyl-1,3-dihydrobenzo[c][1,2,5]oxasilaborol-6-yl)thio)-N-(pyrazin-2-yl)propanamide]	> 400 µg/mL	> 400 µg/mL	> 400 µg/mL	> 400 µg/mL	> 400 µg/mL	> 400 µg/mL	> 400 µg/mL	> 400 µg/mL	> 400 µg/mL	> 400 µg/mL	–	> 400 µg/mL	–	–
C[Si]1(C)OB(O)c2cc(F)c(SCCS(=O)(=O)c3ccccc3)c(F)c21 [Compound 20, 5,7-Difluoro-1,1-dimethyl-6-((2-(phenylsulfonyl)ethyl)thio)benzo[c][1,2,5]oxasilaborol-3(1H)-ol]	> 400 µg/mL	> 400 µg/mL	> 400 µg/mL	> 400 µg/mL	> 400 µg/mL	> 400 µg/mL	> 400 µg/mL	> 400 µg/mL	> 400 µg/mL	> 400 µg/mL	16 mm	400 µg/mL (≈ 965 µM)	–	-fold reduction of MIC in the presence of PAβN (K. pneumoniae ATCC 13883): 4 -fold; -fold reduction of MIC in the presence of PAβN (E. coli ATCC 25922): 32 -fold
